Assay results published in US20210145716A9, “COMPOSITION FOR HAIR FRIZZ REDUCTION” (The Procter & Gamble Company, priority 2015, published 2021).

Assay: Expert rating of hair switches for frizz, clean feel and greasy feel
Conditions: 1% in ethanol/water leave-on, pH 4.2
Protocol: Additional leave-on treatment compositions are prepared (Tables 1 and 2) according to the procedure described above, which are used to treat hair switches using the procedure described above (amount of 0.10 g of composition per g of hair). The switch is kept at high humidity (above 85%) for 2 hours. Then, ten experts are asked to rate each hair switch in terms of frizz, clean feel, and greasy feel, based on a 5 point scale, 5 being the highest and 1 being the lowest rating. Acceptable values are: • For frizz, less than 2 (lower number corresponds to less frizz); • For no greasy feel less than 3, (lower number corresponds to less greasy feel), and • For clean feel greater than 3 (higher number corresponds to cleaner feel).

| Compound | Hair switch rating summary (in words) |
| --- | --- |
| O=C(O)c1ccc(O)cc1O [2,4-Dihydroxybenzoic acid] | fizz protection with clean feel and without greasy feel negative |
| CCCCCCCCC(CO)CCCCCC (stereo not shown) [2-Hexyl-1-decanol] | frizz protection with clean feel and without greasy feel negative |
| O=C(OCCO)c1ccccc1O [2-Hydroxyethyl salicylate] | frizz protection with clean feel and without greasy feel negative |
| O=S(=O)(O)c1ccc(O)cc1 [4-Hydroxybenzenesulphonic acid] | fizz protection with clean feel and without greasy feel negative |
| O=C(O)c1cc(Cl)ccc1O [5-Chlorosalicylic acid] | fizz protection with clean feel and without greasy feel negative |
| CC(C)CCCCCCCCCCCCCCCOC(=O)CCCCCCCCCCCCCCC(C)C [Isostearyl isostearate] | frizz protection with clean feel and without greasy feel negative |
| O=C(O)c1ccccc1O [Salicylic acid] | fizz protection with clean feel and without greasy feel negative |
